| melting point | SMILES |
| --- | --- |
| > 330 °C | COc1cc2c(cc1OC)-c1[nH]c3ccc(C#N)cc3c1CC(=O)N2 [98 N 217, 2,3-Dimethoxy-6-oxo-5,6,7,12-tetrahydro-indolo [3,2-d][1]benzazepin-9-carbonitrile(9-cyano-2,3-dimethoxypaullone)] |
| > 330 °C | O=C1Cc2c([nH]c3ccc([N+](=O)[O-])cc23)-c2cc(Br)ccc2N1 [98 N 354, 2-Bromo-7,12-dihydro-9-nitro-indolo[3,2-d][1]benzazepin-6(5H)-one(2-bromo-9-nitropaullone)] |
| > 330 °C | COc1cc2c(cc1OC)-c1[nH]c3ccc([N+](=O)[O-])cc3c1CC(=O)N2 [98 N 356, 2,3-Dimethoxy-7,12-dihydro-9-nitro-indolo[3,2-d][1]benzazepin-6(5H)-one(2,3-dimethoxy-9-nitropaullone)] |

— patent US7232814B2 (Centre National de la Recherche Scientifique (C.N.R.S.), priority 2000, dated 2007)
